Consider seven compounds from ChEMBL document CHEMBL5543126, “Combinatorial Ubiquitination REal-time PROteolysis (CURE-PROs): A Modular Platform for Generating Reversible, Self-Assembling Bifunctional Targeted Degraders” (J Med Chem, 2024).

Calls of active or inactive are those of the source. The rule behind the calls is not given here.

The target in test [1] is T1, Protein cereblon/Bromodomain-containing protein 4 (Homo sapiens) (UniProt O60885+Q96SW2). Briefly: PROTAC activity at BRD4/CRBN in human HeLa cells assessed as induction of BRD4 degradation in presence of N-((2-(2,6-dioxopiperidin-3-yl)-1,3-dioxoisoindolin-4-yl)methyl)-2,3-dihydroxybenzamide by Combinatorial Ubiquitination Real-time PROteolysis analysis. In kind it is cell-based. Conditions: dose 0.1-10 µM.
T1 sequence (Q96SW2 whole entry, looked up, other chains not shown): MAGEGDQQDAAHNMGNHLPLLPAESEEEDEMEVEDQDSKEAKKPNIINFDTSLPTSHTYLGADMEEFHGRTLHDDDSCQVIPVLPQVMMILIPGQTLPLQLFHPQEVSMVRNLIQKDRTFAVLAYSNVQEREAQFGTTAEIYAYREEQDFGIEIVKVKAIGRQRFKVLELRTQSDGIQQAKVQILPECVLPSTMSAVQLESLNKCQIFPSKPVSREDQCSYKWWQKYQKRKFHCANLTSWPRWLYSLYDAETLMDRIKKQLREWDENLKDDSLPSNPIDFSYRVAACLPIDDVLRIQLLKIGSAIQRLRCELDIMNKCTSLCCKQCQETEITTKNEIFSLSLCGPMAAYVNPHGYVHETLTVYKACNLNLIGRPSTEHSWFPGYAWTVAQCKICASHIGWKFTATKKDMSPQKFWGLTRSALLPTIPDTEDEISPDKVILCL

The target in test [2] is T2, Protein cereblon/Bromodomain-containing protein 3 (Homo sapiens) (UniProt Q15059+Q96SW2). Briefly: PROTAC activity at BRD3/CRBN in human HeLa cells assessed as induction of BRD3 degradation at 10 uM in presence of CRBN ligand based N-((2-(2,6-dioxopiperidin-3-yl)-1,3-dioxoisoindolin-4-yl)methyl)-2,3-dihydroxybenzamide incubated for 24 hrs by Combinatorial Ubiquitination Real-time PROteolysis analysis. In kind it is cell-based.
T2 sequence (Q15059 2-726 limits assumed): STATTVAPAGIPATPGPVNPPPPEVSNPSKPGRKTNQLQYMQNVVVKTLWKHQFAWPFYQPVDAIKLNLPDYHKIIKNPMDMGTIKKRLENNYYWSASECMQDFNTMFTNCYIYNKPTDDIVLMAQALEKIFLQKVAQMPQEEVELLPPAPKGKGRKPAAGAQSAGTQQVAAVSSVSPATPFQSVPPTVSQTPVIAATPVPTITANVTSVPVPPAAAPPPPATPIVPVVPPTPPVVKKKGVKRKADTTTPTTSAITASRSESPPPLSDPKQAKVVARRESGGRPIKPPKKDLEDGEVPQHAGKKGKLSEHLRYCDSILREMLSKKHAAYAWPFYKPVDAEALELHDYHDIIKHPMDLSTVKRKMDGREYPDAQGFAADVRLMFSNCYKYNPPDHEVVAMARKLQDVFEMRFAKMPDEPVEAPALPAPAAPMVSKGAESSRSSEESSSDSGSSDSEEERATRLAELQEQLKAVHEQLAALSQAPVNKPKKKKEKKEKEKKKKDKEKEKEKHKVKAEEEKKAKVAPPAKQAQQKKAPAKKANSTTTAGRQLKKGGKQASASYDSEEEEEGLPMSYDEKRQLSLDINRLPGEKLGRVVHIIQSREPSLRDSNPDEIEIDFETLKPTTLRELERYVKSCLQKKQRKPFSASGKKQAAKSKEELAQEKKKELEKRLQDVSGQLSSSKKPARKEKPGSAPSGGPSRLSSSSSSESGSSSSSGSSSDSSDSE
T2 sequence (Q96SW2 whole entry partner): as the sequence (Q96SW2 whole entry, looked up, other chains not shown) above

Test [3] deals with T2, Protein cereblon/Bromodomain-containing protein 3 (Homo sapiens). The test is described as follows: PROTAC activity at BRD2/CRBN in human HeLa cells assessed as induction of BRD2 degradation at 10 uM in presence of CRBN ligand based N-((2-(2,6-dioxopiperidin-3-yl)-1,3-dioxoisoindolin-4-yl)methyl)-2,3-dihydroxybenzamide incubated for 24 hrs by Combinatorial Ubiquitination Real-time PROteolysis analysis. Format: cell-based.

For test [4], the target named is T1, Protein cereblon/Bromodomain-containing protein 4 (Homo sapiens). The test is described as follows: PROTAC activity at BRD4/CRBN in human HeLa cells assessed as induction of BRD4 degradation at 10 uM incubated for 24 hrs in presence of JQ1 by Western blot analysis. In kind it is cell-based. On the technique in general: Immunoblotting shows a protein as a band on a membrane.

The target is the same in test [5]. The test is described as follows: PROTAC activity at BRD4/CRBN in human HeLa cells assessed as induction of BRD4 degradation at 10 uM incubated for 24 hrs in presence of CRBN based ligand N-((2-(2,6-dioxopiperidin-3-yl)-1,3-dioxoisoindolin-4-yl)methyl)-2,3-dihydroxybenzamide by Combinatorial Ubiquitination Real-time PROteolysis analysis. In kind it is cell-based.

Test [6] deals with T2, Protein cereblon/Bromodomain-containing protein 3 (Homo sapiens). The test is described as follows: PROTAC activity at BRD3/CRBN in human HeLa cells assessed as induction of BRD3 degradation at 10 uM in presence of BRD3 ligand based (3-((4-((4S)-4-(2-(ethylamino)-2-oxoethyl)-8-methoxy-1-methyl4Hbenzo[f][1,2,4]triazolo[4,3-a][1,4]diazepin-6-yl)phenyl)thio)phenyl)boronic acid incubated for 24 hrs by Combinatorial Ubiquitination Real-time PROteolysis analysis. Format: cell-based.

In test [7] the target is T1, Protein cereblon/Bromodomain-containing protein 4 (Homo sapiens). Briefly: PROTAC activity at BRD4/CRBN in human HeLa cells assessed as induction of BRD4 degradation at 10 uM incubated for 24 hrs in presence of BRD4 based ligand (3-((4S)-6-(4-chlorophenyl)-4-(2-(ethylamino)-2-oxoethyl)-1-methyl4H-benzo[f][1,2,4]triazolo[4,3-a][1,4]diazepin-8-yl)phenyl)boronic acid by Combinatorial Ubiquitination Real-time PROteolysis analysis. Format: cell-based.

The next test deals with BRD2/CRBN (Homo sapiens). Briefly: PROTAC activity at BRD2/CRBN in human HeLa cells assessed as induction of BRD2 degradation at 10 uM in presence of BRD3 ligand based (3-((4-((4S)-4-(2-(ethylamino)-2-oxoethyl)-8-methoxy-1-methyl4Hbenzo[f][1,2,4]triazolo[4,3-a][1,4]diazepin-6-yl)phenyl)thio)phenyl)boronic acid incubated for 24 hrs ….
Test [8] concerns the target von Hippel-Lindau disease tumor suppressor/Bromodomain-containing protein 4 (Homo sapiens, UniProt O60885+P40337). The test is described as follows: PROTAC activity at BRD4/VHL in human MCF7 cells assessed as reduction in BRD4 level incubated for 24 hrs in presence of VHL based ligand (2S,4R)-1-((S)-2-(3,4-dihydroxybenzamido)-3,3-dimethylbutanoyl)-4-hydroxy-N-(4-(4-methylthiazol-5-yl)benzyl)pyrrolidine-2-carboxamide by Western blot based Combinatorial Ubiquitination Real-time PROteolysis analysis. Format: cell-based.

Test [9] has as its target T1, Protein cereblon/Bromodomain-containing protein 4 (Homo sapiens). The test is described as follows: PROTAC activity at BRD4/CRBN in human HeLa cells assessed as induction of BRD4 degradation at 0.1 to 10 uM in presence of N-((2-(2,6-dioxopiperidin-3-yl)-1,3-dioxoisoindolin-4-yl)methyl)-2,3-dihydroxybenzamide by Combinatorial Ubiquitination Real-time PROteolysis analysis. Format: cell-based. The following applies: dose 0.1-10 µM.

The target in test [10] is T3, BRD4/E3 ubiquitin-protein ligase Mdm2 (Homo sapiens) (UniProt Q00987+O60885). The test is described as follows: PROTAC activity at MDM2/BRD4 in human HCT-116 cells assessed as induction of BRD4 degradation incubated for 6 hrs. In kind it is cell-based.
T3 sequence (Q00987 whole entry, looked up, other chains not shown): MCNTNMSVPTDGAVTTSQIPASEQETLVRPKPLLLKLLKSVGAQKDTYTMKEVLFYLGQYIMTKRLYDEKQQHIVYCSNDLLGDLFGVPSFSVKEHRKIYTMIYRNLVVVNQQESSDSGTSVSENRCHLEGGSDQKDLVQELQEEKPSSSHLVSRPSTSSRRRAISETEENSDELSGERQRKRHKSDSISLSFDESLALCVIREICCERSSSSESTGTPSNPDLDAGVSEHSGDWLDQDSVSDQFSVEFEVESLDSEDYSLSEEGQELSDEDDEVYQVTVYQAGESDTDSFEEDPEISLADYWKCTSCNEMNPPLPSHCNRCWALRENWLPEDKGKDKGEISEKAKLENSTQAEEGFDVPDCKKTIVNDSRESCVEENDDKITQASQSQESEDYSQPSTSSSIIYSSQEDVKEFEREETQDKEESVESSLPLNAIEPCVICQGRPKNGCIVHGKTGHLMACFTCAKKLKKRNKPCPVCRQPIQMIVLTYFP
The target of test [11] is T3, BRD4/E3 ubiquitin-protein ligase Mdm2 (Homo sapiens). Briefly: PROTAC activity at MDM2/BRD4 in human HCT-116 cells assessed as induction of BRD4 degradation incubated for 6 hrs in presence of BRD4 ligand based (86)-N-(2-(2-(((4S)-6-(4-chlorophenyl)-4-(2-(ethylamino)-2-oxoethyl)-1-methyl-4H-benzo[f][1,2,4]triazolo[4,3-a][1,4]diazepin-8-yl)oxy)ethoxy)ethyl)-2,3-dihydroxybenzamide by Combinatorial Ubiquitination Real-time PROteolysis analysis. Format: cell-based.

The target is the same in test [12]. Briefly: PROTAC activity at MDM2/BRD4 in human HCT-116 cells assessed as activation of caspase 3/7 incubated for 6 hrs in presence of BRD4 ligand based (86)-N-(2-(2-(((4S)-6-(4-chlorophenyl)-4-(2-(ethylamino)-2-oxoethyl)-1-methyl-4H-benzo[f][1,2,4]triazolo[4,3-a][1,4]diazepin-8-yl)oxy)ethoxy)ethyl)-2,3-dihydroxybenzamide by Combinatorial Ubiquitination Real-time PROteolysis analysis. Format: cell-based.

Test [13] relates to NAMALVA. The test is described as follows: Antiproliferative activity against human NAMALVA cells assessed as reduction in cell viability incubated for 72 hrs by celltiter-glo assay. In kind it is functional, cell-based. In general terms: In ATP-based viability assays light output follows the ATP content of the culture.
The subject of test [14] is NAMALVA. The test is described as follows: Antiproliferative activity against human NAMALVA cells assessed as reduction in cell viability incubated for 72 hrs in presence of BRD4 ligand based (86)-N-(2-(2-(((4S)-6-(4-chlorophenyl)-4-(2-(ethylamino)-2-oxoethyl)-1-methyl-4H-benzo[f][1,2,4]triazolo[4,3-a][1,4]diazepin-8-yl)oxy)ethoxy)ethyl)-2,3-dihydroxybenzamide by celltiter-glo assay. Format: functional.

For test [15], the target named is T3, BRD4/E3 ubiquitin-protein ligase Mdm2 (Homo sapiens). Briefly: PROTAC activity at MDM2/BRD4 in human HCT-116 cells assessed as downregulation of SLC19A1 level at 10 uM incubated for 24 hrs by qPCR analysis. Format: cell-based.
Test [16] has the same target. The test is described as follows: PROTAC activity at MDM2/BRD4 in human HCT-116 cells assessed as downregulation of SLC19A1 level at 10 uM incubated for 24 hrs in presence of BRD4 ligand based (86)-N-(2-(2-(((4S)-6-(4-chlorophenyl)-4-(2-(ethylamino)-2-oxoethyl)-1-methyl-4H-benzo[f][1,2,4]triazolo[4,3-a][1,4]diazepin-8-yl)oxy)ethoxy)ethyl)-2,3-dihydroxybenzamid by qPCR based Combinatorial Ubiquitination Real-time PROteolysis analysis. Format: cell-based.

Test [17] has the same target. The test is described as follows: PROTAC activity at MDM2/BRD4 in human HCT-116 cells assessed as induction of BRD4 degradation incubated for 6 hrs in presence of MDM2 ligand based (4-((2-(4-((4S,5R)-4,5-bis(4-chlorophenyl)-2-(2-isopropoxy-4-methoxyphenyl)-4,5-dihydro-1H-imidazole-1-carbonyl)-2-oxopiperazin-1-yl)ethyl)carbamoyl)phenyl)boronic acid by Combinatorial Ubiquitination Real-time PROteolysis analysis. Format: cell-based.

Test [18] has the same target. The test is described as follows: PROTAC activity at MDM2/BRD4 in human HCT-116 cells assessed as activation of caspase3/7 incubated for 6 hrs in presence of MDM2 ligand based (4-((2-(4-((4S,5R)-4,5-bis(4-chlorophenyl)-2-(2-isopropoxy-4-methoxyphenyl)-4,5-dihydro-1H-imidazole-1-carbonyl)-2-oxopiperazin-1-yl)ethyl)carbamoyl)phenyl)boronic acid by Combinatorial Ubiquitination Real-time PROteolysis analysis. Format: cell-based.

Test [19] has as its system NAMALVA. Briefly: Antiproliferative activity against human NAMALVA cells assessed as reduction in cell viability incubated for 72 hrs in presence of MDM2 ligand based (4-((2-(4-((4S,5R)-4,5-bis(4-chlorophenyl)-2-(2-isopropoxy-4-methoxyphenyl)-4,5-dihydro-1H-imidazole-1-carbonyl)-2-oxopiperazin-1-yl)ethyl)carbamoyl)phenyl)boronic acid by celltiter-glo assay. In kind it is functional.

Test [20] addresses T3, BRD4/E3 ubiquitin-protein ligase Mdm2 (Homo sapiens). Briefly: PROTAC activity at MDM2/BRD4 in human HCT-116 cells assessed as downregulation of SLC19A1 level at 10 uM incubated for 24 hrs in presence of MDM2 ligand based (4-((2-(4-((4S,5R)-4,5-bis(4-chlorophenyl)-2-(2-isopropoxy-4-methoxyphenyl)-4,5-dihydro-1H-imidazole-1-carbonyl)-2-oxopiperazin-1-yl)ethyl)carbamoyl)phenyl)boronic acid by qPCR based Combinatorial Ubiquitination Real-time PROteolysis analysis. In kind it is cell-based.

von Hippel-Lindau disease tumor suppressor/Bromodomain-containing protein 4, sequence (P40337 whole entry, looked up, other chains not shown): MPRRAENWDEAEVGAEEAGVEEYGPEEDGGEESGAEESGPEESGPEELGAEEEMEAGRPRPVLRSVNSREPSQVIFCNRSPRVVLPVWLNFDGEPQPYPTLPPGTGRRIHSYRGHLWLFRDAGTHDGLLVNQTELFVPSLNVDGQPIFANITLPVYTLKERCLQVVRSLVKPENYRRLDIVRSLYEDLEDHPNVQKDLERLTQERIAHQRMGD

As to `CCNC(=O)C[C@@H]1N=C(c2ccc(Sc3cccc(B(O)O)c3)cc2)c2cc(OC)ccc2-n2c(C)nnc21`, the Activity result in test [1] is “Dose-Dependent Effect”. The result in test [2] and in test [3] was Active.
As for `CCNC(=O)C[C@@H]1N=C(c2ccc(Cl)cc2)c2cc(-c3cccc(B(O)O)c3)ccc2-n2c(C)nnc21`, in test [4], the result was inactive. Besides, the outcome in test [5] was Active.
`O=C1CCC(N2C(=O)c3cccc(CNC(=O)c4cccc(O)c4O)c3C2=O)C(=O)N1` (configuration not stated): the outcome (in [6]; in test [7]; with BRD2/CRBN (Homo sapiens)) was Active. For the same compound, the outcome in test [4] was inactive.
As to `Cc1ncsc1-c1ccc(CNC(=O)[C@@H]2C[C@@H](O)CN2C(=O)[C@@H](NC(=O)c2ccc(O)c(O)c2)C(C)(C)C)cc1`, the outcome in test [8] was inactive.
Take `CCNC(=O)C[C@@H]1N=C(c2ccc(Sc3ccccc3)cc2)c2cc(OC)ccc2-n2c(C)nnc21`: the result in test [9] was inactive.
One may read the IC50 as the concentration that gives 50% inhibition. For `CCNC(=O)C[C@@H]1N=C(c2ccc(Cl)cc2)c2cc(OCCOCCNC(=O)c3cccc(O)c3O)ccc2-n2c(C)nnc21`, the result in test [10] and in test [15] was inactive. In addition, the outcome in test [11], in [12] and in test [16] was Active. In addition, the IC50 with NAMALVA [13] came out at 51300 nM; in the test with NAMALVA [14], 724 nM.
With `COc1ccc(C2=N[C@H](c3ccc(Cl)cc3)[C@@H](c3ccc(Cl)cc3)N2C(=O)N2CCN(CCNC(=O)c3ccc(B(O)O)cc3)C(=O)C2)c(OC(C)C)c1`, the outcome in [17], in test [18] and in [20] was Active. Moreover, in the test on NAMALVA [19], the IC50 stood at 724 nM.
